Test systems include 786-0 renal; COLO 205 colon; EKVX NSCLC; LOX IMVI melanoma; RPMI-8226 leukemia; SF-268 CNS; SF-295 CNS; SR leukemia; U251 CNS; CAKI-1 renal.
What all share (assay): DTP human tumour cell line panel, 48 h

The structures appear in SMILES notation.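 Growth conditions: 96-well plates. Treatment: test compound, 48 hours, 5 concentrations. Analysis: linear interpolation between bracketing concentrations; unreached endpoints set to highest concentration. GI50 is the concentration that inhibits growth by half. TGI: concentration producing complete growth inhibition.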

Usually GI50 stands for the concentration giving 50% growth inhibition. One may read the TGI as the concentration giving total growth inhibition. Regarding `CC[C@H](C)[C@H](NC(=O)[C@H]1CCCCN1C)C(=O)N(C)[C@H](CCc1nc(C(=O)N[C@@H](Cc2ccccc2)C[C@H](C)C(=O)O)cs1)C(C)C`, the GI50 with 786-0 renal is 0.476 µM; with COLO 205 colon, 0.144 µM; in the test with EKVX NSCLC, 0.92 µM; with LOX IMVI melanoma it was 0.123 µM; in the test on RPMI-8226 leukemia, 0.1 µM; in the test with SF-268 CNS, 0.184 µM. Further, the values for the 50% growth inhibitory concentration (GI50) in the test on SF-295 CNS, in the test with SR leukemia and in the test with U251 CNS were 0.143 µM, 0.0166 µM and 0.127 µM, respectively. Also, the TGI in the test on 786-0 renal is > 25 µM; with COLO 205 colon it was 1.83 µM; in the test with EKVX NSCLC, > 25 µM; in the test on LOX IMVI melanoma it was > 25 µM; with RPMI-8226 leukemia, > 25 µM; in the test with SF-268 CNS, > 25 µM. Also, the TGI with SR leukemia and in the test on U251 CNS was > 25 µM each time.

In the case of `CC(C)c1ccc(O)c(Cc2cc(C(C)C)cc(Cc3cc(C(C)C)ccc3O)c2O)c1`, the TGI amounted to 3.08 µM with 786-0 renal; 2.91 µM with CAKI-1 renal; 12.3 µM in the test with COLO 205 colon; 8.95 µM with EKVX NSCLC; 4.75 µM with RPMI-8226 leukemia; 4.01 µM with SF-268 CNS. Further, the TGI in the test with SF-295 CNS came to 3.3 µM; with SR leukemia, 4.45 µM; in the test with U251 CNS it was 3.17 µM.

In the case of `Clc1ccc2c(NCCNc3nc(N4CCOCC4)nc4ccccc34)ccnc2c1`, the GI50 with 786-0 renal was 1.79 µM; with COLO 205 colon, 2.02 µM; in the test on EKVX NSCLC it was 4 µM; in the test on LOX IMVI melanoma, 1.8 µM; in the test with RPMI-8226 leukemia, 1.72 µM; with SF-268 CNS, 3.53 µM. Also, the GI50 was 1.75 µM in the test on SF-295 CNS, 0.313 µM in the test on SR leukemia and 1.71 µM in the test with U251 CNS. In addition, the total growth inhibition concentration (TGI) in the test on 786-0 renal was 4.95 µM; in the test with COLO 205 colon, 4.46 µM; in the test on EKVX NSCLC, 16.4 µM; with LOX IMVI melanoma, 3.45 µM; in the test on RPMI-8226 leukemia, 5.17 µM; with SF-268 CNS, 13 µM. The TGI stood at 3.24 µM with SF-295 CNS, 2.03 µM in the test on SR leukemia and 3.4 µM in the test on U251 CNS.

On to `Cc1cc(C)c2nc3c(c(C(O)C4CCCCN4)c2c1)CC/C3=C\c1ccc(Cl)cc1` (stereo not given), for which the TGI in the test with 786-0 renal, in the test on CAKI-1 renal, in the test with COLO 205 colon, with EKVX NSCLC, in the test on RPMI-8226 leukemia and with SF-268 CNS was > 100 µM each time. The TGI with SF-295 CNS, in the test on SR leukemia and in the test with U251 CNS was > 100 µM each time.

With `C[N+](C)(C)CC1CCC(C[N+](C)(C)C)C1=NO` (stereo not given), the TGI with 786-0 renal, with COLO 205 colon, with EKVX NSCLC, with LOX IMVI melanoma, in the test on RPMI-8226 leukemia and in the test with SF-268 CNS was > 100 µM in each case. The TGI with SF-295 CNS, in the test with SR leukemia and in the test on U251 CNS was > 100 µM in each case.

As for `CC(=O)c1cc2c(N)c(C(=O)Nc3cccc4ccccc34)sc2nc1C`, the GI50 in the test on 786-0 renal was 1.87 µM; in the test with COLO 205 colon, 1.12 µM; in the test on EKVX NSCLC, 2.9 µM; with LOX IMVI melanoma, 2.58 µM; in the test with RPMI-8226 leukemia, 1.76 µM; in the test on SF-268 CNS it was 4.34 µM. Besides, the figures for the GI50 in the test on SF-295 CNS, in the test on SR leukemia and in the test on U251 CNS were 0.922 µM, 1.21 µM and 1.92 µM, respectively. For the same molecule, the TGI was > 50 µM in the test on 786-0 renal; 3.2 µM in the test with COLO 205 colon; > 50 µM in the test on EKVX NSCLC; > 50 µM in the test with LOX IMVI melanoma; > 50 µM in the test with RPMI-8226 leukemia; > 50 µM with SF-268 CNS. Besides, the TGI with SF-295 CNS is 3.59 µM; in the test with SR leukemia it was > 50 µM; in the test on U251 CNS, > 50 µM.

For the molecule `O=C1C(Cl)=C(Nc2ccc(S(=O)(=O)c3ccc(NC4=C(Cl)C(=O)c5ccccc5C4=O)cc3)cc2)C(=O)c2ccccc21`, the GI50 in the test on 786-0 renal was 1.86 µM; in the test with CAKI-1 renal, 1.38 µM; with COLO 205 colon, 1.74 µM; in the test on EKVX NSCLC it was 2.36 µM; in the test on LOX IMVI melanoma it was 1.49 µM; with RPMI-8226 leukemia, 1.54 µM. The GI50 was 3.27 µM in the test on SF-295 CNS and 1.27 µM in the test with SR leukemia. The TGI stood at 3.29 µM with 786-0 renal; 2.74 µM with CAKI-1 renal; 3.22 µM in the test on COLO 205 colon; 9.07 µM with EKVX NSCLC; 3.1 µM with LOX IMVI melanoma; 7.25 µM with RPMI-8226 leukemia. Moreover, the TGI was determined as 11.8 µM with SF-295 CNS and 7.19 µM in the test on SR leukemia.

Consider `FC(F)(F)c1ccccc1C1SCc2nc3ccccc3n21` (stereo not given), for which the concentration for total growth inhibition (TGI) in the test on 786-0 renal, in the test with CAKI-1 renal, in the test with COLO 205 colon, in the test on EKVX NSCLC, in the test on RPMI-8226 leukemia and with SF-268 CNS was > 100 µM throughout. Further, the total growth inhibition concentration (TGI) in the test on SF-295 CNS, with SR leukemia and in the test on U251 CNS was > 100 µM throughout.
